One test deals with GST-Bcl-2 (Homo sapiens, UniProt P10415). The experiment in a line: TR-FRET binding assay, GST-Bcl-2 with F-Bak peptide probe. Particulars: TR-FRET Binding Affinity, GST-Bcl-2, F-Bak peptide probe. In a few lines:
(§1)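 Competitive TR-FRET: GST-fusion protein, fluorescent Bak peptide probe and Tb-labelled anti-GST antibody incubated with compound dilution series (starting 50 μM as 2× stock, 10% DMSO) for 3 h at RT. Excitation 340/35 nm; Ki derived via Wang's exact competitive-binding equation.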

The test system of another test is FL5.12/Bcl-2 cells. Briefly: FL5.12/Bcl-2 cell viability assay under IL-3 withdrawal (CellTitre Glo). Format: cell-based, murine. Particulars: Mus musculus, IL-3 withdrawn 48 hrs, then 24 hrs with compound. In a few lines:
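Viability measured with CellTiter-Glo after 24 h compound treatment at various concentrations, following 48 h IL-3 withdrawal (no WEHI-3B medium). Cells: prolymphocytic mouse FL5.12 line stably transfected to overexpress Bcl-2, cultured at 37 °C, 5% CO2.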

For another test, the target named is GST-Bcl-XL (Homo sapiens, UniProt Q07817). Briefly: TR-FRET binding assay, GST-Bcl-XL with F-Bak peptide probe. As to conditions: TR-FRET Binding Affinity, GST-Bcl-XL, F-Bak peptide probe. In a few lines: as §1
Chain of GST-Bcl-XL (Q07817 whole entry): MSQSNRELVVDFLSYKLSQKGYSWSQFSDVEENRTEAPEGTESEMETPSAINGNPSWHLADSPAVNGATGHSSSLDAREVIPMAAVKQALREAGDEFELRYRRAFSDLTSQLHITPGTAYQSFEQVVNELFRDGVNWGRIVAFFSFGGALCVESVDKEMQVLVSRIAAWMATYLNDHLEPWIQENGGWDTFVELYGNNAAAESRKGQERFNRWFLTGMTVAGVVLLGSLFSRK
(In TR-FRET formats the signal depends on donor and acceptor labels being close together.)

Chain of GST-Bcl-2 (P10415 whole entry, the tested form may be a part): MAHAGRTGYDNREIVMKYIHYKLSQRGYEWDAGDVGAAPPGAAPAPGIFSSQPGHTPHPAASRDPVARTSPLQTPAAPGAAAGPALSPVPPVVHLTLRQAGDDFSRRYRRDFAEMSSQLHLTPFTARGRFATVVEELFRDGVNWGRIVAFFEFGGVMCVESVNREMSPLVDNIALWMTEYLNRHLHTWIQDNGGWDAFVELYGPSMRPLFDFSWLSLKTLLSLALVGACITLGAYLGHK

With `CC1(C)CCC(CN2CCN(c3ccc(C(=O)NS(=O)(=O)c4ccc(OCC5CCOCC5)c(C(N)=O)c4)c(Oc4ccc5[nH]ccc5c4)c3)CC2)=C(c2ccc(Cl)cc2)C1` [Example 357, N-{[3-(aminocarbonyl)-4-(tetrahydro-2H-pyran-4-ylmethoxy)phenyl]sulfonyl}-4-(4-{[2-(4-chlorophenyl)-4,4-dimethylcyclohex-1-en-1-yl]methyl}piperazin-1-yl)-2-(1H-indol-5-yloxy)benzamide], the Ki on GST-Bcl-2 was 1.34 nM; on GST-Bcl-XL, above 660 nM. The EC50 in the test on FL5.12/Bcl-2 cells is above 500 nM.
Turning to `O=C(NS(=O)(=O)c1ccc(NC2CCN(C3CCOCC3)CC2)c([N+](=O)[O-])c1)c1ccc(N2CCN(Cc3ccc(C(F)(F)F)cc3-c3ccc(Cl)cc3)CC2)cc1Oc1ccc2[nH]ccc2c1` [Example 358, 4-(4-{[4′-chloro-5-(trifluoromethyl)-1,1′-biphenyl-2-yl]methyl}piperazin-1-yl)-2-(1H-indol-5-yloxy)-N-({3-nitro-4-[(1-tetrahydro-2H-pyran-4-ylpiperidin-4-yl)amino]phenyl}sulfonyl)benzamide], the values for the Ki at GST-Bcl-2 and on GST-Bcl-XL were 5.42 nM and above 660 nM, respectively. In the test with FL5.12/Bcl-2 cells, the EC50 is above 500 nM.
For `CC(C)(C)c1ccc(CN2CCN(c3ccc(C(=O)NS(=O)(=O)c4ccc(NC5CCN(C6CCOCC6)CC5)c([N+](=O)[O-])c4)c(Oc4ccc5[nH]ccc5c4)c3)CC2)c(-c2ccc(Cl)cc2)c1` [Example 359, 4-{4-[(5-tert-butyl-4′-chloro-1,1′-biphenyl-2-yl)methyl]piperazin-1-yl}-2-(1H-indol-5-yloxy)-N-({3-nitro-4-[(1-tetrahydro-2H-pyran-4-ylpiperidin-4-yl)amino]phenyl}sulfonyl)benzamide], in that order: 13.5 nM, above 660 nM and above 500 nM.
For `Cn1cncc1CNc1ccc(S(=O)(=O)NC(=O)c2ccc(N3CCN(CC4=C(c5ccc(Cl)cc5)CC(C)(C)CC4)CC3)cc2Oc2ccc3[nH]ccc3c2)cc1[N+](=O)[O-]` [Example 360, 4-(4-{[2-(4-chlorophenyl)-4,4-dimethylcyclohex-1-en-1-yl]methyl}piperazin-1-yl)-2-(1H-indol-5-yloxy)-N-[(4-{[(1-methyl-1H-imidazol-5-yl)methyl]amino}-3-nitrophenyl)sulfonyl]benzamide], in that order: 0.228 nM, 144 nM and 106 nM.
Turning to `CC1(C)CCC(CN2CCN(c3ccc(C(=O)NS(=O)(=O)c4ccc(S(=O)(=O)N5CCOCC5)cc4)c(Oc4ccc5[nH]ccc5c4)c3)CC2)=C(c2ccc(Cl)cc2)C1` [Example 361, 4-(4-{[2-(4-chlorophenyl)-4,4-dimethylcyclohex-1-en-1-yl]methyl}piperazin-1-yl)-2-(1H-indol-5-yloxy)-N-{[4-(morpholin-4-ylsulfonyl)phenyl]sulfonyl}benzamide], the Ki on GST-Bcl-2 is 7.13 nM; on GST-Bcl-XL, above 660 nM. Besides, the EC50 with FL5.12/Bcl-2 cells was above 500 nM.
For `CC1(C)CCC(CN2CCN(c3ccc(C(=O)NS(=O)(=O)c4ccc(NN5CCS(=O)(=O)CC5)c([N+](=O)[O-])c4)c(Oc4ccc5[nH]ccc5c4)c3)CC2)=C(c2ccc(Cl)cc2)C1` [Example 362, 4-(4-{[2-(4-chlorophenyl)-4,4-dimethylcyclohex-1-en-1-yl]methyl}piperazin-1-yl)-N-({4-[(1,1-dioxidothiomorpholin-4-yl)amino]-3-nitrophenyl}sulfonyl)-2-(1H-indol-5-yloxy)benzamide], in that order: 0.082 nM, 290 nM and 171 nM.
In the same order, the values of `CC1(C)CCC(CN2CCN(c3ccc(C(=O)NS(=O)(=O)c4ccc(NC5CCC(N6CCOCC6)CC5)c([N+](=O)[O-])c4)c(Oc4ccc5[nH]ccc5c4)c3)CC2)=C(c2ccc(Cl)cc2)C1` (stereo not drawn) [Example 363, 4-(4-{[2-(4-chlorophenyl)-4,4-dimethylcyclohex-1-en-1-yl]methyl}piperazin-1-yl)-2-(1H-indol-5-yloxy)-N-({4-[(4-morpholin-4-ylcyclohexyl)amino]-3-nitrophenyl}sulfonyl)benzamide] are 0.18 nM, above 660 nM and 86.9 nM.
For `CC1(C)CCC(CN2CCN(c3ccc(C(=O)NS(=O)(=O)c4cnc(OCC5CCOCC5)c(Br)c4)c(Oc4cccc5[nH]ccc45)c3)CC2)=C(c2ccc(Cl)cc2)C1` [Example 364, N-{[5-bromo-6-(tetrahydro-2H-pyran-4-ylmethoxy)pyridin-3-yl]sulfonyl}-4-(4-{[2-(4-chlorophenyl)-4,4-dimethylcyclohex-1-en-1-yl]methyl}piperazin-1-yl)-2-(1H-indol-4-yloxy)benzamide], in that order: 0.006 nM, 76 nM and 185 nM.
In the case of `CC1(C)CCC(CN2CCN(c3ccc(C(=O)NS(=O)(=O)c4cnc(NCC5CCOCC5)c(-c5nccs5)c4)c(Oc4cccc5[nH]ccc45)c3)CC2)=C(c2ccc(Cl)cc2)C1` [Example 365, 4-(4-{[2-(4-chlorophenyl)-4,4-dimethylcyclohex-1-en-1-yl]methyl}piperazin-1-yl)-2-(1H-indol-4-yloxy)-N-{[6-[(tetrahydro-2H-pyran-4-ylmethyl)amino]-5-(1,3-thiazol-2-yl)pyridin-3-yl]sulfonyl}benzamide], the Ki on GST-Bcl-2 is 1.08 nM; at GST-Bcl-XL, above 660 nM. Further, the EC50 in the test on FL5.12/Bcl-2 cells was above 500 nM.
For `CC1(C)CCC(CN2CCN(c3ccc(C(=O)NS(=O)(=O)c4ccc(NCC5CCOCC5)c(C#N)c4)c(Oc4cccc5[nH]ccc45)c3)CC2)=C(c2ccc(Cl)cc2)C1` [Example 366, 4-(4-{[2-(4-chlorophenyl)-4,4-dimethylcyclohex-1-en-1-yl]methyl}piperazin-1-yl)-N-({3-cyano-4-[(tetrahydro-2H-pyran-4-ylmethyl)amino]phenyl}sulfonyl)-2-(1H-indol-4-yloxy)benzamide], in that order: 5.46 nM, above 660 nM and above 500 nM.
For the molecule `CC1(C)CCC(CN2CCN(c3ccc(C(=O)NS(=O)(=O)c4ccc(NCC5CCOCC5)c(C#N)c4)c(Oc4ccc5[nH]ccc5c4)c3)CC2)=C(c2ccc(Cl)cc2)C1` [Example 367, 4-(4-{[2-(4-chlorophenyl)-4,4-dimethylcyclohex-1-en-1-yl]methyl}piperazin-1-yl)-N-({3-cyano-4-[(tetrahydro-2H-pyran-4-ylmethyl)amino]phenyl}sulfonyl)-2-(1H-indol-5-yloxy)benzamide], the Ki on GST-Bcl-2 was 4.61 nM; at GST-Bcl-XL it was above 660 nM. Besides, the EC50 in the test on FL5.12/Bcl-2 cells is above 500 nM.
In the same order, the values of `CC(C)(C)CCNc1ccc(S(=O)(=O)NC(=O)c2ccc(N3CCN(CC4=C(c5ccc(Cl)cc5)CC(C)(C)CC4)CC3)cc2Oc2ccc3[nH]ccc3c2)cc1[N+](=O)[O-]` [Example 368, 4-(4-{[2-(4-chlorophenyl)-4,4-dimethylcyclohex-1-en-1-yl]methyl}piperazin-1-yl)-N-({4-[(3,3-dimethylbutyl)amino]-3-nitrophenyl}sulfonyl)-2-(1H-indol-5-yloxy)benzamide] are above 1200 nM, above 660 nM and above 500 nM.
For `CC(C)C[C@@H](CO)Nc1ccc(S(=O)(=O)NC(=O)c2ccc(N3CCN(CC4=C(c5ccc(Cl)cc5)CC(C)(C)CC4)CC3)cc2Oc2ccc3[nH]ccc3c2)cc1[N+](=O)[O-]` [Example 369, 4-(4-{[2-(4-chlorophenyl)-4,4-dimethylcyclohex-1-en-1-yl]methyl}piperazin-1-yl)-N-[(4-{[(1S)-1-(hydroxymethyl)-3-methylbutyl]amino}-3-nitrophenyl)sulfonyl]-2-(1H-indol-5-yloxy)benzamide], in that order: 838 nM, above 660 nM and above 500 nM.
For `CC1(C)CCC(CN2CCN(c3ccc(C(=O)NS(=O)(=O)c4ccc(NC[C@H]5CCCO5)c([N+](=O)[O-])c4)c(Oc4ccc5[nH]ccc5c4)c3)CC2)=C(c2ccc(Cl)cc2)C1` [Example 370, 4-(4-{[2-(4-chlorophenyl)-4,4-dimethylcyclohex-1-en-1-yl]methyl}piperazin-1-yl)-2-(1H-indol-5-yloxy)-N-[(3-nitro-4-{[(2R)-tetrahydrofuran-2-ylmethyl]amino}phenyl)sulfonyl]benzamide], the Ki was 0.904 nM at GST-Bcl-2 and above 660 nM at GST-Bcl-XL. Moreover, in the test on FL5.12/Bcl-2 cells, the EC50 amounted to 263 nM.
For `CC(C)[C@H](CO)Nc1ccc(S(=O)(=O)NC(=O)c2ccc(N3CCN(CC4=C(c5ccc(Cl)cc5)CC(C)(C)CC4)CC3)cc2Oc2ccc3[nH]ccc3c2)cc1[N+](=O)[O-]` [Example 371, 4-(4-{[2-(4-chlorophenyl)-4,4-dimethylcyclohex-1-en-1-yl]methyl}piperazin-1-yl)-N-[(4-{[(1R)-1-(hydroxymethyl)-2-methylpropyl]amino}-3-nitrophenyl)sulfonyl]-2-(1H-indol-5-yloxy)benzamide], in that order: 8.38 nM, above 660 nM and above 500 nM.
In the same order, the values of `COc1ccc(Nc2ccc(S(=O)(=O)NC(=O)c3ccc(N4CCN(CC5=C(c6ccc(Cl)cc6)CC(C)(C)CC5)CC4)cc3Oc3ccc4[nH]ccc4c3)cc2[N+](=O)[O-])cc1` [Example 372, 4-(4-{[2-(4-chlorophenyl)-4,4-dimethylcyclohex-1-en-1-yl]methyl}piperazin-1-yl)-2-(1H-indol-5-yloxy)-N-({4-[(4-methoxyphenyl)amino]-3-nitrophenyl}sulfonyl)benzamide] are above 1200 nM, above 660 nM and above 500 nM.

A word on the Ki: it is the dissociation constant of the complex between target and ligand, obtained from inhibition or displacement. By EC50 is commonly meant the concentration that produces a half-maximal response.

For the origin of these results see patent publication US9073855B2, “BCL-2 selective apoptosis-inducing agents for the treatment of cancer and immune diseases” (AbbVie Inc., priority 2008, dated 2015).
